Measurements published in the supplement of paper PMC11208160.

Assay: recombinant UMI read abundance after kanamycin selection (control-corrected) (log10(CPM+1)); higher = more efficient recombination; extreme values may be limits of the assay; sequences stand for … in AGTGCAGAGAAAATCGGCCAGTTTTCTCTGCCTGCAGTCCGCATGCCGTGGGACCCCTTGGGTTCTAACCTGTTGCCTAGATTTATGCAGCGGACTGCCTTTCTCCCAAAGTGATAAACCGG…AGGTTGGTTTCACT; site = the 11-nt donor
Procedure, shortened: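 Pooled Escherichia coli screen of donor and donor-binding-loop pairs for the IS621 bridge recombinase. Each pair sits with a 12-nt UMI on a plasmid carrying a promoterless kanamycin gene. The library was co-electroporated with a target plasmid encoding a fixed target and T7-inducible recombinase, then plated with IPTG (0.07 mM) plus kanamycin, or unselected, each in two replicates. Recombinant UMIs were PCR-amplified across the donor–target junction and sequenced. Counts became CPM, averaged over replicates, scaled by control-derived factors and reported as log10(CPM+1).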
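Note: IS621 bridge recombinase in Escherichia coli cells against a fixed T5 target plasmid.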

Sequence | recombinant UMI read abundance (log10)
GACCCATCATGGACCGGTTTTCCCGGTAATCCGTATTTGAG (site GACCCATCTCT) | 2.43
GACCGTCCATGGACCGGTTTTCCCGGTAATCCGTATTTGAG (site GACCGTCCTCT) | 0.281
GACCTACCATGGACCGGTTTTCCCGGTAATCCGTATTTGTC (site GACCTACCTGA) | 0
GACCTCACATGGACCGGTTTTCCCGGTAATCCGTATTTGGG (site GACCTCACTCC) | 0.0144
GACCTTGCATGGACCGGTTTTCCCGGTAATCCGTATTTGCA (site GACCTTGCTTG) | 0
GACGAACCATGGACCGGTTTTCCCGGTAATCCGTATTTGAG (site GACGAACCTCT) | 0
GACGAACCATGGACCGGTTTTCCCGGTAATCCGTATTTGGT (site GACAAACCTAC) | 0
GACGAACCATGGACCGGTTTTCCCGGTAATCCGTATTTGGT (site GACCAACCTAC) | 0.0777
GACGAACCATGGACCGGTTTTCCCGGTAATCCGTATTTGGT (site GACGAACCTAC) | 0
GACGAACCATGGACCGGTTTTCCCGGTAATCCGTATTTGGT (site GACTAACCTAC) | 0.0149
GACGCAACATGGACCGGTTTTCCCGGTAATCCGTATTTGTA (site GACGCAACTTA) | 1.34
GACGCCGCATGGACCGGTTTTCCCGGTAATCCGTATTTGGC (site GACGCCGCTGC) | 2.91
GACGTCTCATGGACCGGTTTTCCCGGTAATCCGTATTTGGA (site GACGTCTCTTC) | 1.94
GACTATACATGGACCGGTTTTCCCGGTAATCCGTATTTGGG (site GACTATACTCC) | 0.588
GACTCGACATGGACCGGTTTTCCCGGTAATCCGTATTTGCA (site GACTCGACTTG) | 1.84
GACTCTGCATGGACCGGTTTTCCCGGTAATCCGTATTTGCT (site GACTCTGCTAG) | 1.3
GACTGACCATGGACCGGTTTTCCCGGTAATCCGTATTTGGC (site GACTGACCTGC) | 0
GACTGAGCATGGACCGGTTTTCCCGGTAATCCGTATTTGTC (site GACTGAGCTGA) | 2.29
GACTGCACATGGACCGGTTTTCCCGGTAATCCGTATTTGGT (site GACTGCACTAC) | 0.857

Sequence | recombinant UMI read abundance (log10)
GACTTAGCATGGACCGGTTTTCCCGGTAATCCGTATTTGGT (site GACTTAGCTAC) | 0.191
GAGAAACCATGGACCGGTTTTCCCGGTAATCCGTATTTGGT (site GAAAAACCTAC) | 0
GAGAAACCATGGACCGGTTTTCCCGGTAATCCGTATTTGGT (site GACAAACCTAC) | 0
GAGAAACCATGGACCGGTTTTCCCGGTAATCCGTATTTGGT (site GAGAAACCTAC) | 0
GAGAAACCATGGACCGGTTTTCCCGGTAATCCGTATTTGGT (site GATAAACCTAC) | 0
GAGAACCCATGGACCGGTTTTCCCGGTAATCCGTATTTGTC (site GAGAACCCTGA) | 0
GAGAAGCCATGGACCGGTTTTCCCGGTAATCCGTATTTGAC (site GAGAAGCCTGT) | 0
GAGACAACATGGACCGGTTTTCCCGGTAATCCGTATTTGAA (site GAGACAACTTT) | 0.852
GAGACGACATGGACCGGTTTTCCCGGTAATCCGTATTTGGG (site GAGACGACTCC) | 0.501
GAGACGACATGGACCGGTTTTCCCGGTAATCCGTATTTGTC (site GAGACGACTGA) | 1.94
GAGACTACATGGACCGGTTTTCCCGGTAATCCGTATTTGAA (site GAGACTACTTT) | 0.551
GAGATAACATGGACCGGTTTTCCCGGTAATCCGTATTTGCG (site GAGATAACTCG) | 1.56
GAGATCACATGGACCGGTTTTCCCGGTAATCCGTATTTGGT (site GAGATCACTAC) | 1.37
GAGATGACATGGACCGGTTTTCCCGGTAATCCGTATTTGCA (site GAGATGACTTG) | 2.52
GAGCAATCATGGACCGGTTTTCCCGGTAATCCGTATTTGTT (site GAGCAATCTAA) | 2.77
GAGCATGCATGGACCGGTTTTCCCGGTAATCCGTATTTGGT (site GAGCATGCTAC) | 1.5
GAGCATGCATGGACCGGTTTTCCCGGTAATCCGTATTTGGT (site GCGCATGCTAC) | 0.474
GAGCATGCATGGACCGGTTTTCCCGGTAATCCGTATTTGGT (site GGGCATGCTAC) | 0.422
